The subject of one series is caspase-3/7. Nature of the series: Caspase-3/7 activity in the presence of Shield-1. Format: cell-based, human. The settings on record: Day 2.
Series [1] deals with c-MYC-DD-2A-BMI1-introduced cells.
Experimental: (§1) Therefore, the activity of caspase-3/7 in the presence of Shield-1 was then measured.
In series [2] the test system is megakaryocytic progenitor cells. Put plainly: Expanding culture of c-Myc and BMI1-introduced cells with caspase inhibitor added in place of BCL-XL. The class given is cell-based, human. The settings on record: 30 μM added after c-Myc and BMI1 introduction; culture for 66 days. The method, then: In place of expressing BCL-XL, another method for controlling caspase was investigated as follows. After c-Myc and BMI1 were introduced, a caspase inhibitor, i.e., Z-VAD FMK (Merck) (10 μM or 30 μM) was added. In this condition, culture was continued for 66 days. When BCL-XL was expressed, the cells proliferated by 64 times; whereas when 30 μM of Z-VAD FMK was added, the cells proliferated by 21 times (FIG. 10). In contrast, when DMSO was used (negative control), no proliferation was observed. Furthermore, when DMSO was used, the number of Annexin V positive cells was counted. As a result, many Annexin V positive cells were present (66.5%). From this, it was confirmed that apoptosis was not suppressed.

Where a SMILES comes first, the peptide text is derived from it. The star is where a group is joined. Cbz = O=C(OCc1ccccc1)*; CH2F = FC*

Experimental for caspase-3/7: as §1

As for `CC[C@H](C(=O)N1CCCC[C@H]1C(=O)O[C@H](CCc1ccc(OC)c(OC)c1)c1cccc(OCCN2CCOCC2)c1)c1cc(OC)c(OC)c(OC)c1` [Shield-1], in the series with caspase-3/7, the “activity of caspase-3/7” value is reported as “caspase was activated”. The toxic effect result in series [1] was “did not have toxic effect”. Besides, the “number of megakaryocytic progenitor cells” value in series [1] (c-MYC expression stabilized by adding Shield-1, Day 7) is listed as “decreased in volume-dependent manner”.
With `COC(=O)C[C@H](NC(=O)[C@H](C)NC(=O)[C@@H](NC(=O)OCc1ccccc1)C(C)C)C(=O)CF` [Z-VAD FMK] (Cbz-Val-Ala-Asp(OMe)-CH2F), in series [2], the cell proliferation was determined as 21 times.

Values taken from patent US20220017866A1, “PRODUCTION METHODS FOR MEGAKARYOCYTES AND PLATELETS” (KYOTO UNIVERSITY, priority 2013, published 2022).
